Source: US20250129078A1, “ERBB2 INHIBITORS” (Cogent Biosciences, Inc., priority 2023, published 2025)
Counter-ions that a name gives are not always drawn.

Tests used:
[1] = target: EGFR WT (Homo sapiens (Human), UniProt P00533); assay: ErbB enzyme assay (CisBio HTRF-KinEASE-TK), EGFR WT; format: biochemical; settings: ATP at Km (25 μM), 1 h incubation
Method in brief: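 Three-fold DMSO serial dilutions were added to kinase reactions and incubated 1 h at room temperature. Quench used 62.5 nM Sa-XL665 plus 0.25×TK-Ab-Cryptate in detection buffer, followed by another 1 h. Substrate phosphorylation was then measured by dual-wavelength HTRF.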

[2] = target: ErbB2 V777L (Homo sapiens (Human), UniProt P04626, V777L); assay: ErbB enzyme assay (CisBio HTRF-KinEASE-TK), ErbB2 V777L; format: biochemical
Method in brief: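 HTRF KinEASE-TK tyrosine-kinase read-out of substrate phosphorylation after a final 1 h at ambient temperature, from the 655/620 nm emission ratio.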

Sequence of EGFR WT (P00533 25-1210): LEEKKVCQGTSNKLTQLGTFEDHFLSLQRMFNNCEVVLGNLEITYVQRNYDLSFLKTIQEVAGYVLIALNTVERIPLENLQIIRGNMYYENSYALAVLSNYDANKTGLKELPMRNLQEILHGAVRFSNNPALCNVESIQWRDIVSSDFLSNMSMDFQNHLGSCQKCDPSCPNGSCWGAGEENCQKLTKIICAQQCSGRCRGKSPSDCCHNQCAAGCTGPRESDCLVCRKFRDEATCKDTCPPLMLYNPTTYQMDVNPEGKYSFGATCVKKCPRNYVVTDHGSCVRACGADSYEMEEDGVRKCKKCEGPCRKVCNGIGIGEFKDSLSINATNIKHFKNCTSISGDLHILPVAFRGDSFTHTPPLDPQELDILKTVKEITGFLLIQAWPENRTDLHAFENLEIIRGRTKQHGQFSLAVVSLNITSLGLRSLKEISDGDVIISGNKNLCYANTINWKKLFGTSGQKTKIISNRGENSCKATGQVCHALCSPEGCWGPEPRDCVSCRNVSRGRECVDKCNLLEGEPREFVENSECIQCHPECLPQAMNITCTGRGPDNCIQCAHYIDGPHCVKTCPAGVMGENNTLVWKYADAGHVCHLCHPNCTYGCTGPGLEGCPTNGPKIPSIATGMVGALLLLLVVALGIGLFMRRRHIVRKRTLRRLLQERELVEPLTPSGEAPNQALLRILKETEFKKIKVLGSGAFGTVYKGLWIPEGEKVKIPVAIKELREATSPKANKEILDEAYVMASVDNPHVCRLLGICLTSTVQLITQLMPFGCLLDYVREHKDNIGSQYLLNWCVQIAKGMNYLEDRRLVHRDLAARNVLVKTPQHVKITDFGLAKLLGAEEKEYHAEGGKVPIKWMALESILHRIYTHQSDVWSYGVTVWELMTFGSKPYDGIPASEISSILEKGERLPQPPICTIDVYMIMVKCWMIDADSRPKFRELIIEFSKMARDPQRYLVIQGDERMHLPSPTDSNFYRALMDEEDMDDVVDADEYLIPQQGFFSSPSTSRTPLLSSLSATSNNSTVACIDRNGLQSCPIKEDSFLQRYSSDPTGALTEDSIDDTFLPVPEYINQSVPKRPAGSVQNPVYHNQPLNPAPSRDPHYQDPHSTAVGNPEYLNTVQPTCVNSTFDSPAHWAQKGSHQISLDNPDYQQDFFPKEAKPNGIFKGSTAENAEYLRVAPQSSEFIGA
Sequence of ErbB2 V777L (P04626 23-1255 V777L): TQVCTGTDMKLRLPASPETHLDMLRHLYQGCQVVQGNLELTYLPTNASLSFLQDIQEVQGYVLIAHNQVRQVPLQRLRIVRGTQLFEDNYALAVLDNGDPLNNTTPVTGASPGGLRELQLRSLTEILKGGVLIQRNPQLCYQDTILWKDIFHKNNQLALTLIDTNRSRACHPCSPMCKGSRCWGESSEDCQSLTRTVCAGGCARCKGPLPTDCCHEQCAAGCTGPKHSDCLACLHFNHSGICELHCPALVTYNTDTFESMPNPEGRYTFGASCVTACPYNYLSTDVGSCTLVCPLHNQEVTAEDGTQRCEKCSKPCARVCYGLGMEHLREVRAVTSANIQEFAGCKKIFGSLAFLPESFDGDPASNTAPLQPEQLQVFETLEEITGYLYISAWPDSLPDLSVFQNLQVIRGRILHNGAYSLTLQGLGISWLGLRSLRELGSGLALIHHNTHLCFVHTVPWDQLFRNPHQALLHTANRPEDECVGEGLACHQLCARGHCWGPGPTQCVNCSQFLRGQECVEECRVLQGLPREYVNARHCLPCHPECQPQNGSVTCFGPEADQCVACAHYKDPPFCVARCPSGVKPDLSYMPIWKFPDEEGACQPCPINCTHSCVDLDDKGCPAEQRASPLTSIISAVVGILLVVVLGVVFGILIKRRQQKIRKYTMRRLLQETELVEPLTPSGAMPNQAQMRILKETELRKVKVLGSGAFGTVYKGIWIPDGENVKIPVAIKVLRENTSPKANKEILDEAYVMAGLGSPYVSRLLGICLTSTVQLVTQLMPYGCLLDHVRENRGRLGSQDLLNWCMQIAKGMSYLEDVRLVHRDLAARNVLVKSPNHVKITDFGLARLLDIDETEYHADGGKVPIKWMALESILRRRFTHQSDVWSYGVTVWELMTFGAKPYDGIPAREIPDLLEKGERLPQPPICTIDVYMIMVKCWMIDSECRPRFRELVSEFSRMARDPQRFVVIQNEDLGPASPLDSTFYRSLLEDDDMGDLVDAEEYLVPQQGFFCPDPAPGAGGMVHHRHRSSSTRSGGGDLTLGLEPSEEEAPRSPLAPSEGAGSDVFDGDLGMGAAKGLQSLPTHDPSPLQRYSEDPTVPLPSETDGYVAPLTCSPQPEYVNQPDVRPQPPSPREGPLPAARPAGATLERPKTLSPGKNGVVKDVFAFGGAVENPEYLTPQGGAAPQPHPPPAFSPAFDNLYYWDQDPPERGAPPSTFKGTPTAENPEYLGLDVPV

| Structure (SMILES) | IC50 [1] [nM] | IC50 [2] [nM] |
| --- | --- | --- |
| C=CC(=O)N1CCN(c2ccc3ncnc(Nc4ccc(Oc5ccc6c(c5)nnn6C)c(C)c4)c3n2)CC[C@@H]1C [Compound 354, (S)-1-(7-methyl-4-(4-((3-methyl-4-((1-methyl-1H-benzo[d][1,2,3]triazol-5-yl)oxy)phenyl)amino)pyrido[3,2-d]pyrimidin-6-yl)-1,4-diazepan-1-yl)prop-2-en-1-one] | 500 to 1000 | 100 to 500 |
| C=CC(=O)N[C@@H]1CCCCN(c2ccc3ncnc(Nc4ccc(Oc5ccc6c(c5)nnn6C)c(C)c4F)c3n2)C1 [Compound 289, (R)-N-(1-(4-((2-fluoro-3-methyl-4-((1-methyl-1H-benzo[d][1,2,3]triazol-5-yl)oxy)phenyl)amino)pyrido[3,2-d]pyrimidin-6-yl)azepan-3-yl)acrylamide] | 100 to 500 | 500 to 1000 |
| C=CC(=O)N1CC2C(C1)N2c1ncc2ncnc(Nc3ccc(Oc4ccc5c(c4)nnn5C)c(C)c3)c2n1 (stereo not shown) [Compound 242, 1-(6-(8-((3-methyl-4-((1-methyl-1H-benzo[d][1,2,3]triazol-5-yl)oxy)phenyl)amino)pyrimido[5,4-d]pyrimidin-2-yl)-3,6-diazabicyclo[3.1.0]hexan-3-yl)prop-2-en-1-one] | 100 to 500 | 500 to 1000 |
| C=CC(=O)N1CCN(c2ncc3ncnc(Nc4ccc(Oc5cc6nnn(C)c6c(F)c5C)c(C)c4)c3n2)C[C@H]1C [Compound 174, (R)-1-(4-(8-((4-((7-fluoro-1,6-dimethyl-1H-benzo[d][1,2,3]triazol-5-yl)oxy)-3-methylphenyl)amino)pyrimido[5,4-d]pyrimidin-2-yl)-2-methylpiperazin-1-yl)prop-2-en-1-one] | ≥ 1000 | 100 to 500 |
| C=CC(=O)N1CCCN(c2ccc3ncnc(Nc4ccc(Oc5ccn6ncnc6c5)c(C)c4)c3n2)C[C@@H]1C [Compound 355, (S)-1-(4-(4-((4-([1,2,4]triazolo[1,5-a]pyridin-7-yloxy)-3-methylphenyl)amino)pyrido[3,2-d]pyrimidin-6-yl)-2-methyl-1,4-diazepan-1-yl)prop-2-en-1-one] | ≥ 1000 | 100 to 500 |
| C=CC(=O)N1CCN(c2ncc3ncnc(Nc4ccc(Oc5ccc6c(c5)nnn6C)c(CC)c4)c3n2)CC1 [Compound 114, 1-(4-(8-((3-ethyl-4-((1-methyl-1H-benzo[d][1,2,3]triazol-5-yl)oxy)phenyl)amino)pyrimido[5,4-d]pyrimidin-2-yl)piperazin-1-yl)prop-2-en-1-one] | 100 to 500 | 100 to 500 |
| C=C1CCN([C@H]2CCN(c3ncc4ncnc(Nc5ccc(Oc6ccn7ncnc7c6)c(C)c5)c4n3)C2)C1=O [Compound 239, (S)-1′-(8-((4-([1,2,4]triazolo[1,5-a]pyridin-7-yloxy)-3-methylphenyl)amino)pyrimido[5,4-d]pyrimidin-2-yl)-3-methylene-[1,3′-bipyrrolidin]-2-one] | 500 to 1000 | 50 to 100 |
| Cc1cc(Nc2ncnc3cnc(N4CCN(C(=O)/C=C/CF)CC4)nc23)ccc1Oc1ccc2c(c1)nnn2C [Compound 210, (E)-4-fluoro-1-(4-(8-((3-methyl-4-((1-methyl-1H-benzo[d][1,2,3]triazol-5-yl)oxy)phenyl)amino)pyrimido [5,4-d]pyrimidin-2-yl)piperazin-1-yl)but-2-en-1-one] | 100 to 500 | 50 to 100 |
| C=CC(=O)N1CCN(c2ncc3ncnc(Nc4ccc(Oc5ccc6c(c5)nnn6C)c(C)c4)c3n2)C[C@@H]1C [Compound 2, (S)-1-(2-methyl-4-(8-((3-methyl-4-((1-methyl-1H-benzo[d][1,2,3]triazol-5-yl)oxy)phenyl)amino)pyrimido[5,4-d]pyrimidin-2-y1)piperazin-1-yl)prop-2-en-1-one] | 100 to 500 | 50 to 100 |
| C=CC(=O)N1CCN(c2ncc3ncnc(Nc4ccc(Oc5ccc6c(c5)nnn6C)c(C)c4F)c3n2)C[C@H]1C [Compound 156, (R)-1-(4-(8-((2-fluoro-3-methyl-4-((1-methyl-1H-benzo[d][1,2,3]triazol-5-yl)oxy)phenyl)amino)pyrimido[5,4-d]pyrimidin-2-y1)-2-methylpiperazin-1-yl)prop-2-en-1-one] | 100 to 500 | 100 to 500 |
| C=CC(=O)N1CCN(c2ncc3ncnc(Nc4cc(F)c(Oc5ccc6c(c5)nnn6C)cc4F)c3n2)CC1 [Compound 31, 1-(4-(8-((2,5-difluoro-4-((1-methyl-1H-benzo[d][1,2,3]triazol-5-yl)oxy)phenyl)amino)pyrimido[5,4-d]pyrimidin-2-yl)piperazin-1-yl)prop-2-en-1-one] | 100 to 500 | 100 to 500 |
| C=CC(=O)N1C[C@@H]2CCN(c3ccc4ncnc(Nc5ccc(Oc6ccc7c(c6)nnn7C)c(C)c5)c4n3)[C@@H]2C1 (stereo in doubt) [Compound 314, 1-(1-(4-((3-methyl-4-((1-methyl-1H-benzo[d][1,2,3]triazol-5-yl)oxy)phenyl)amino)pyrido[3,2-d]pyrimidin-6-yl)hexahydropyrrolo[3,4-b]pyrrol-5(1H)-y1)prop-2-en-1-one] | 100 to 500 | 50 to 100 |

Now from value to compound:

| IC50 [1] [nM] | IC50 [2] [nM] | Structure (SMILES) |
| --- | --- | --- |
| 500 to 1000 | 100 to 500 | C=CC(=O)N1C2C=C(c3ccc4ncnc(Nc5ccc(Oc6ccc7c(c6)nnn7C)c(C)c5)c4n3)CC1CCC2 (stereo not shown) [Compound 405, 1-(3-(4-((3-methyl-4-((1-methyl-1H-benzo[d][1,2,3]triazol-5-yl)oxy)phenyl)amino)pyrido[3,2-d]pyrimidin-6-yl)-9-azabicyclo[3.3.1]non-2-en-9-yl)prop-2-en-1-one] |
| 100 to 500 | 50 to 100 | C=CC(=O)N1C[C@H](C)N(c2ncc3ncnc(Nc4ccc(Oc5ccc6c(c5)nnn6C)c(C)c4)c3n2)C[C@@H]1C [Compound 187, 1-((2S,5S)-2,5-dimethyl-4-(8-((3-methyl-4-((1-methyl-1H-benzo[d][1,2,3]triazol-5-yl)oxy)phenyl)amino)pyrimido[5,4-d]pyrimidin-2-yl)piperazin-1-yl)prop-2-en-1-one] |
| 100 to 500 | 100 to 500 | C=CC(=O)N1CCN(c2ncc3ncnc(Nc4ccc(Oc5ccc6c(c5)nnn6C)c(C)c4C)c3n2)CC1 [Compound 65, 1-[4-[4-[2,3-dimethyl-4-(1-methylbenzotriazol-5-yl)oxy-anilino]pyrimido[5,4-d]pyrimidin-6-yl]piperazin-1-yl] prop-2-en-1-one] |
| 100 to 500 | 50 to 100 | C=CC(=O)N1C2CC1CN(c1ncc3ncnc(Nc4ccc(Oc5ccc6c(c5)nnn6C)c(C)c4)c3n1)C2 [Compound 60, 1-(3-(8-((3-methyl-4-((1-methyl-1H-benzo[d][1,2,3]triazol-5-yl)oxy)phenyl)amino)pyrimido[5,4-d]pyrimidin-2-yl)-3,6-diazabicyclo[3.1.1]heptan-6-yl)prop-2-en-1-one] |
| 100 to 500 | 50 to 100 | C=CC(=O)N1C2CCC1CN(c1ncc3ncnc(Nc4ccc(Oc5cnc6c(c5)ncn6C)c(C)c4)c3n1)C2 [Compound 134, 1-(3-(8-((3-methyl-4-((3-methyl-3H-imidazo[4,5-b]pyridin-6-yl)oxy)phenyl)amino)pyrimido[5,4-d]pyrimidin-2-yl)-3,8-diazabicyclo[3.2.1]octan-8-yl)prop-2-en-1-one] |
| 100 to 500 | 50 to 100 | C=C(COC)C(=O)NC1CCN(c2ncc3ncnc(Nc4ccc(Oc5ccc6c(c5)nnn6C)c(C)c4)c3n2)CC1 [Compound 212, 2-(methoxymethyl)-N-(1-(8-((3-methyl-4-((1-methyl-1H-benzo[d][1,2,3]triazol-5-yl)oxy)phenyl)amino)pyrimido [5,4-d]pyrimidin-2-yl)piperidin-4-yl)acrylamide] |
| 100 to 500 | 100 to 500 | C=CC(=O)N1C2CCCC1CC(c1ccc3ncnc(Nc4ccc(Oc5ccc6c(c5)nnn6C)c(C)c4F)c3n1)C2 (stereo not shown) [Compound 402, 1-(3-(4-((2-fluoro-3-methyl-4-((1-methyl-1H-benzo[d][1,2,3]triazol-5-yl)oxy)phenyl)amino)pyrido[3,2-d]pyrimidin-6-yl)-9-azabicyclo[3.3.1]nonan-9-yl)prop-2-en-1-one trifluoroacetate] |
| 100 to 500 | 100 to 500 | C=CC(=O)NC1(C(F)(F)F)CCN(c2ccc3ncnc(Nc4ccc(Oc5ccc6c(c5)nnn6C)c(C)c4F)c3n2)CC1 [Compound 345, N-(1-(4-((2-fluoro-3-methyl-4-((1-methyl-1H-benzo[d][1,2,3]triazol-5-yl)oxy)phenyl)amino)pyrido[3,2-d]pyrimidin-6-yl)-4-(trifluoromethyl)piperidin-4-yl)acrylamide] |
| < 50 | 50 to 100 | C=CC(=O)N1CCN(c2ncc3ncnc(Nc4ccc(Oc5ccc6c(c5)nnn6C(F)F)c(C)c4)c3n2)CC1 [Compound 63, 1-(4-(8-((4-((1-(difluoromethyl)-1H-benzo[d][1,2,3]triazol-5-yl)oxy)-3-methylphenyl)amino)pyrimido[5,4-d]pyrimidin-2-yl)piperazin-1-yl)prop-2-en-1-one] |
| 100 to 500 | 100 to 500 | C=CC(=O)N1C[C@H]2CN(c3ncc4ncnc(Nc5ccc(Oc6ccc7c(c6)nnn7C)c(C)c5)c4n3)C[C@H]21 [Compound 243, cis-1-((1r,5s)-3-(8-((3-methyl-4-((1-methyl-1H-benzo[d][1,2,3]triazol-5-yl)oxy)phenyl)amino)pyrimido[5,4-d]pyrimidin-2-yl)-3,6-diazabicyclo[3.2.0]heptan-6-yl)prop-2-en-1-one] |
| 100 to 500 | 50 to 100 | C=CC(=O)N1CCCC(c2ccc3ncnc(Nc4ccc(Oc5ccc6c(c5)nnn6C)c(C)c4)c3n2)C1 (stereo not shown) [Compound 398, 1-(3-(4-((3-methyl-4-((1-methyl-1H-benzo[d][1,2,3]triazol-5-yl)oxy)phenyl)amino)pyrido[3,2-d]pyrimidin-6-yl)piperidin-1-yl)prop-2-en-1-one] |
